The structures appear in SMILES notation. ≈ marks a conversion by molar mass, not a printed value. Where two headings read alike, the source gives them in different places. Marks after values point to notes of the source that are not given here.

The values that follow come from paper PMC4058456, “Jacobsen Catalyst as a Cytochrome P450 Biomimetic Model for the Metabolism of Monensin A” (BioMed Research International, 2014).

In data set [1] the test system is Staphylococcus aureus ATCC 43300 (MRSA-methicillin resistant). Kind of data set: Antimicrobial bioassay, minimal bactericidal concentration (MTT). It counts as cell-based. The settings on record: for MBC: Staphylococcus aureus, read-out: Minimal bactericidal concentration. As for the experimental part: (§1) The bioassays were carried out using the strains Staphylococcus aureus ATCC 25923, Staphylococcus aureus ATCC 43300 (MRSA-methicillin resistant), Staphylococcus epidermidis ATCC 14990, Pseudomonas aeruginosa ATCC 27853, and Escherichia coli ATCC 25922 all acquired from the American Type Culture Collection (ATCC). Approximately 5 × 10^5 microorganisms·mL^−1 were incubated in Muller Hinton broth in 96-well microtiter plates containing the samples to be tested. The compounds (monensin A, metabolite 1, and metabolite 2) were dissolved in dimethylsulfoxide (DMSO) and diluted into the medium to give 100, 50, 25, 12.5, 6.3, 3.1, 1.6, 0.8, 0.4, 0.2, 0.1, and 0.05 μg·mL^−1, as their final concentrations. The plates were incubated at 37°C and the bioassays were performed in triplicate. The cell death was determined by a MTT colorimetric method which was described by Andrews and Furtado et al.. The DMSO solution and chloramphenicol were used as controls of the experiment.

Data set [2] deals with Pseudomonas aeruginosa ATCC 27853. The description is as above. The format is cell-based. How it is done:
as §1

The test system of data set [3] is Staphylococcus epidermidis ATCC 14990. The data set is described as above. It counts as cell-based. How it is done:
as §1

Data set [4] concerns Staphylococcus aureus ATCC 25923. The data set is described as above. The settings on record: for MBC: Staphylococcus aureus. It counts as cell-based. As for the experimental part: as §1
Data set [5] deals with Escherichia coli ATCC 25922. Described as above. The format is cell-based. How it is done:
as §1

In data set [6] the test system is rat liver mitochondria. Kind of data set: Mitochondrial swelling (apparent absorbance at 540 nm). The settings on record: 1 μM. As for the experimental part: (§2) Monensin A was diluted in ethanol to concentrations 0.01, 0.1, and 1 μM. All assays were performed in three replicates. Rat liver mitochondria were isolated by standard differential centrifugation according to Pereira et al. and the mitochondrial protein content was determined by the biuret method.
Mitochondrial swelling was estimated from the decrease in apparent absorbance at 540 nm performed with a Model DU-70 spectrophotometer (Beckman). The mitochondria were incubated using 30°C in 2 mL of the standard reaction medium.

Another data set has as its system Streptococcus faecalis. Details: method as in PMID 17702333. As to conditions: turbidimetric assay against Streptococcus faecalis; cited from earlier work.
The subject of the next data set is Bacillus subtilis. The arrangement: method as in PMID 17702333. As to conditions: bioautography against Bacillus subtilis; cited from earlier work.
Data set [7] concerns rat liver mitochondria. Kind of data set: Mitochondrial respiration (oxygen consumption, Clark-type electrode). The settings on record: 1 μM. As for the experimental part: as §2
Mitochondrial respiration was monitored polarographically with an oxygraph (Hansatech) equipped with a Clark-type oxygen electrode. The mitochondria (1.0 mg protein) were incubated at 30°C in 1 mL of the respiratory medium containing 125 mM sucrose, 65 mM KCl, 10 mM HEPES-KOH, 0.5 mM EGTA, and 10 mM K2HPO4; pH 7.2. 5 mM glutamate and malate were used as the oxidizable substrates for complex I; and mitochondrial oxidative phosphorylation (state 3) was initiated using 400 nmol ADP.

Data set [8] deals with rat liver mitochondria. In words: Mitochondrial membrane potential (safranin-o fluorescence). The settings on record: 1 μM. As for the experimental part: as §2
Mitochondrial Membrane potential (ΔΨ) was monitored spectrofluorimetrically using 10 μM safranin-o as a probe in a F-4500 spectrofluorometer (Hitachi) with the 495/586 nm excitation/emission wavelength pair. The mitochondria (1.0 mg protein·mL^−1) were incubated at 30°C in 2 mL of the standard reaction medium containing 125 mM sucrose, 65 mM KCl, and 10 mM HEPES-KOH, and CCCP (carbonyl cyanide 3-chlorophenylhydrazone) was added at the end of each experiment for the complete dissipation of the membrane potential.

For data set [9], the system named is rat liver mitochondria. Kind of data set: Mitochondrial ROS production (H2DCFDA). As to conditions: 1 μM. As for the experimental part: as §2
Mitochondrial reactive oxygen species (ROS) production was monitored spectrofluorimetrically with 2′,7′-dichlorodihydrofluorescein diacetate (H2DCFDA) with the 503/529 nm excitation/emission wavelength pair, both using the standard reaction medium.

Data set [10] is described as follows: Biomimetic oxidation of monensin A catalysed by Jacobsen catalyst (CYP450 model), HPLC-ESI-MS. The format is in vitro ADME. The settings on record: catalyst:oxidant:monensin A 1:20:20, CH2Cl2, room temperature, 24 h. As for the experimental part: Based on the previous studies by this laboratory, the oxidation reactions were performed in an Eppendorf tube (2 mL), under mechanical stirring (Vibrax VXR agitator) at room temperature for 24 h. The ideal molar ratio obtained for the reaction was 1 : 20 : 20 (for catalyst : oxidant : monensin A). This was achieved by adding 0.3 mmol·L^-1 : 6 mmol·L^-1 : 6 mmol·L^−1 in the 0.5 mL of reaction medium (CH2Cl2). The oxidants were m-CPBA, PhIO, t-BOOH, and H2O2. The products from monensin A oxidation were analyzed by HPLC-ESI-MS. Control reactions were carried out in the absence of catalyst under the same conditions as the catalytic runs and no products were detected.
LC-ESI-MS analyses were performed on a Varian LC-MS 1200L triple quadrupole apparatus coupled to a mass spectrometer with ESI ionization in the positive mode (Varian Medical Systems Inc., Palo Alto, CA). The chromatographic analysis was performed using an injection volume of 10 μL, sample concentration 50 μg·mL^−1 in an Xterra analytical column MS C-18 (150 × 2.1 mm, 5 μm) (Waters) and following gradient (MeOH : H2O): 0.1 min 70% MeOH, 20.0 min 98% MeOH, 21.0 min 30% MeOH, and 30.0 min 70% MeOH. The MS conditions were capillary voltage 3.2 kV, cone voltage 40 V, source temperature 40°C, and N2 desolvation temperature 350°C. The percentage of monensin A oxidation was determined by using a calibration curve of 10–100 μg·mL^−1. The resulting mass spectra were monitored over a m/z range of 610 to 800.

For data set [11], the system named is S. epidermidis ATCC 12228. Details: method as in PMID 23509771. The settings on record: cited from earlier work.
The next data set deals with S. aureus ATCC 25923. The arrangement: method as in PMID 23509771. As to conditions: cited from earlier work.
The test system of data set [12] is S. epidermidis ATCC 35984. The arrangement: method as in PMID 23509771. As to conditions: cited from earlier work.
[13] abbreviates: ATCC27853, P. aeruginosa ATCC 27853, read-out: Minimal bactericidal concentration.
[14] abbreviates: ATCC14990, S. epidermidis ATCC 14990, read-out: Minimal bactericidal concentration.
[15] abbreviates: ATCC25923, S. aureus ATCC 25923, read-out: Minimal bactericidal concentration.
The mark [16] stands for this setting: ATCC25922, E. coli ATCC 25922, read-out: Minimal bactericidal concentration.
[17] abbreviates: isolated rat liver mitochondria 1.0 mg protein·mL−1.

Take `O=C(N[C@H](CO)[C@H](O)c1ccc([N+](=O)[O-])cc1)C(Cl)Cl` [Chloramphenicol, chloramphenicol, reference compound]: the MBC in [1] (S. aureus ATCC 43300 (MRSA)) turned out to be 8.3 mg/L (≈ 25.7 µM); in [2] (setting [13]), 100 mg/L (≈ 309 µM); in data set [3] (setting [14]), 6.3 mg/L (≈ 19.5 µM); in data set [4] (setting [15]), 6.3 mg/L (≈ 19.5 µM); in data set [5] (setting [16]) it was 3.1 mg/L (≈ 9.59 µM).
Take `CCC1(C2OC(C3OC(O)(CO)C(C)CC3C)CC2C)CCC(C2(C)CCC3(CC(O)C(C)C(C(C)C(O)C(C)C(=O)O)O3)O2)O1` (centres unmarked) [Product 1, 3-O-demethyl monensin A]: the “effect on mitochondrial swelling (in words)” value in the data set with rat liver mitochondria [6] is “no effect”. For the same molecule, the Minimal bactericidal concentration in [1] (S. aureus ATCC 43300 (MRSA)) was 50.0 mg/L (≈ 76.1 µM); in data set [4] (S. aureus ATCC 25923), 25.0 mg/L (≈ 38.1 µM). Besides, the MBC in [1] was 50 mg/L (≈ 76.1 µM); in data set [2] (ATCC27853, read-out: Minimal bactericidal concentration), over 100 mg/L; in data set [3] (ATCC14990, read-out: Minimal bactericidal concentration), over 100 mg/L; in data set [4] (ATCC25923, read-out: Minimal bactericidal concentration) it was 25 mg/L (≈ 38.1 µM); in [5] (ATCC25922, read-out: Minimal bactericidal concentration), over 100 mg/L. The “antimicrobial activity relative to monensin” value in the data set with Streptococcus faecalis and with Bacillus subtilis was 5% throughout. In the data set with rat liver mitochondria [7], the “effect on mitochondrial respiratory parameters (in words)” value is given as “none of these detrimental effects”. Also, the “ADP/O (phosphorylation efficiency)” value with rat liver mitochondria [7] (setting [17]) is 2.757 ± 0.09^a. The “RCR (respiratory control ratio)” value in the data set with rat liver mitochondria [7] (setting [17]) is reported as 6.623 ± 0.27^a. Also, the “V3 (state 3 respiration rate)” value in the data set on rat liver mitochondria [7] (setting [17]) is recorded as 66.363 ± 2.29^a nmol O2/mg protein/min. Further, the “V4 (state 4 respiration rate)” value in the data set on rat liver mitochondria [7] (setting [17]) is on record as 10.02 ± 0.11^a nmol O2/mg protein/min. Moreover, the “effect on mitochondrial membrane potential (in words)” value with rat liver mitochondria [8] was “no effect”. The “effect on mitochondrial ROS accumulation (in words)” value in the data set on rat liver mitochondria [9] was “no effect”.
In the case of `CC[C@@]1([C@@H]2O[C@@H]([C@H]3O[C@@](O)(CO)[C@H](C)C[C@@H]3C)C[C@@H]2C)CC[C@H]([C@]2(C)CC[C@]3(C[C@H](O)[C@@H](C)[C@@H]([C@@H](C)[C@@H](OC)[C@H](C)C(=O)O)O3)O2)O1` [Monensin A], the “mitochondrial swelling, effect on the apparent turbidity” value in the data set with rat liver mitochondria [6] (rat) came to 54.61%. The MBC in [1] (S. aureus ATCC 43300 (MRSA)) is 6.3 mg/L (≈ 9.39 µM); in data set [2] (setting [13]) it was over 100 mg/L; in data set [3] (setting [14]) it was 25 mg/L (≈ 37.3 µM); in data set [4] (setting [15]), 3.1 mg/L (≈ 4.62 µM); in data set [5] (setting [16]) it was over 100 mg/L. Besides, the monensin conversion in data set [10] (oxidant H2O2) is on record as 26%; in data set [10] (oxidant PhIO), 36%; in [10] (oxidant m-CPBA) it was 27%; in [10] (oxidant t-BOOH), 14%. Besides, the figures for the antimicrobial activity concentration (in data set [11]; in the data set on S. aureus ATCC 25923; in [12]) were 2.9 µg/mL, 2.9 µg/mL and 5.8 µg/mL, respectively. In addition, the “ADP/O (phosphorylation efficiency)” value in the data set with rat liver mitochondria [7] (rat, pH 7.2) was 1.498 ± 0.01^b. Further, the “RCR (respiratory control ratio)” value with rat liver mitochondria [7] (rat, pH 7.2) is on record as 4.548 ± 0.16^b. In the data set with rat liver mitochondria [7] (rat, pH 7.2), the “V3 (state 3 respiration rate)” value was 64.097 ± 2.35^a nmol O2/mg protein/min. Moreover, in the data set with rat liver mitochondria [7] (rat, pH 7.2), the “V4 (state 4 respiration rate)” value is 14.12 ± 0.97^b nmol O2/mg protein/min. Further, the “decrease of respiratory control ratio (RCR)” value in the data set with rat liver mitochondria [7] (rat, pH 7.2) was 32.59%. Further, the “increase of state 4 of oxygen consumption” value with rat liver mitochondria [7] (rat, pH 7.2) is listed as 44.11%. For the same molecule, the “reduction in ADP/O” value in the data set with rat liver mitochondria [7] (rat, pH 7.2) was 47.73%. Besides, the “decrease on the mitochondrial membrane potential” value with rat liver mitochondria [8] (rat) is given as 23.29%. In the data set on rat liver mitochondria [9] (rat), the “increase in accumulation of free radicals (ROS)” value was 12.14%.
For `CCC1(C2OC(C3OC(O)(CO)C(C)C(O)C3C)CC2C)CCC(C2(C)CCC3(CC(O)C(C)C(C(C)C(OC)C(C)C(=O)O)O3)O2)O1` (centres unmarked) [Product 2, 12-hydroxy monensin A], the “effect on mitochondrial swelling (in words)” value in the data set with rat liver mitochondria [6] is reported as “no effect”. Also, the Minimal bactericidal concentration in data set [1] (S. aureus ATCC 43300 (MRSA)) and in data set [4] (S. aureus ATCC 25923) was over 100 mg/L in each case. In addition, the MBC in data set [1] (S. aureus ATCC 43300 (MRSA)), in data set [2] (setting [13]), in data set [3] (setting [14]), in data set [4] (setting [15]) and in data set [5] (setting [16]) was over 100 mg/L each time. Moreover, in the data set with rat liver mitochondria [7], the “effect on mitochondrial respiratory parameters (in words)” value is on record as “none of these detrimental effects”. Further, the “ADP/O (phosphorylation efficiency)” value in the data set with rat liver mitochondria [7] (setting [17]) is 2.728 ± 0.06^a. Moreover, in the data set on rat liver mitochondria [7] (setting [17]), the “RCR (respiratory control ratio)” value is 6.786 ± 0.15^a. For the same molecule, the “V3 (state 3 respiration rate)” value in the data set with rat liver mitochondria [7] (setting [17]) is on record as 66.730 ± 1.95^a nmol O2/mg protein/min. Besides, the “V4 (state 4 respiration rate)” value in the data set with rat liver mitochondria [7] (setting [17]) is listed as 9.832 ± 0.07^a nmol O2/mg protein/min. Besides, the “effect on mitochondrial membrane potential (in words)” value in the data set with rat liver mitochondria [8] was “no effect”. Also, the “effect on mitochondrial ROS accumulation (in words)” value with rat liver mitochondria [9] was “no effect”.
